Test results published in publication PMC6662551 (Clinical and Translational Science, 2019).
“And” between values parts separate entries of the source, which are not always exact repeats. Equal entries are not always repeated. Where two headings read alike, the source gives them in different places. Values belong to the compound of their own block, whether it stands above or below them.

What was measured:
[1] = for ratio of mean AUC0→12 in SLCO1B1 c.521CC and c.521TT: named peak only; for AUC(0-t): AUC0→12, text, pravastatin peak only
[2] = test system: 3‐hydroxy‐3‐methylglutaryl coenzyme A reductase; conditions: relative to pravastatin; cited from earlier work
[3] = test system: OATP1B1; format: in vivo, human; conditions: human, plasma, oral; for AUC(0-t): AUClast, 0.25-12 hour; for C0: C0, plasma, baseline
[4] = format: in vivo, human; conditions: for AUClast: 0.25-12 hour; for ratio of mean AUC in SLCO1B1 c.521‐CC to c.521TT: endogenous biomarker; for C0: plasma; for increase in plasma concentration, Cmax over baseline: pravastatin plus placebo, individuals homozygous c.521‐CC; for time of peak plasma level: two individuals c.521‐CC
[5] = pravastatin + cyclosporine, CC (N = 2)
[6] = pravastatin + cyclosporine, TC (N = 6)
[7] = pravastatin + cyclosporine, TT (N = 8)
[8] = pravastatin + placebo, CC (N = 2)
[9] = pravastatin + placebo, TC (N = 6)
[10] = pravastatin + cyclosporine, all genotype (N = 16)
[11] = pravastatin + placebo, TT (N = 8)
[12] = pravastatin + placebo, all genotype (N = 16)
[13] = 12 hours after first CsA dose, pravastatin + cyclosporine, all genotype
[14] = baseline, pravastatin + placebo, all genotype
[15] = pravastatin + cyclosporine (N = 16)

ratio of mean AUC0→12 in SLCO1B1 c.521CC and c.521TT [1]: 1.2 fold
Compound: 3′α‐hydroxy‐pravastatin
inhibitory activity relative to the parent compound [2]: one‐tenth to one‐fortieth

AUC(0-t) [3, 5]: 1.68 µM·h
AUC(0-t) [3, 6]: 0.853 ± 0.303 µM·h
AUC(0-t) [3, 7]: 1.07 µM·h
AUC(0-t) [3, 8]: 1.45 µM·h
AUC(0-t) [3, 9]: 0.506 ± 0.116 µM·h
C0 ([3]; pravastatin + placebo, CC): 114 ± 47.5 nM
C0 ([3]; pravastatin + placebo, TC): 43.1 ± 13.4 nM
C0 ([3]; pravastatin + placebo, TT): 52 ± 29.6 nM
AUClast [4, 10]: 1,070 ± 357 nM·hour
AUClast [4, 11]: 557 ± 161 nM·h
AUClast [4, 12]: 649 ± 346 nM·h
C0 fold increase, pravastatin plus CsA over pravastatin plus placebo ([4]; CC): 1.0 fold
AUClast fold increase, pravastatin plus CsA over pravastatin plus placebo ([4]; CC (N = 2)): 1.2 fold
Cavg fold increase, pravastatin plus CsA over pravastatin plus placebo ([4]; CC (N = 2)): 1.2 fold
C0 fold increase, pravastatin plus CsA over pravastatin plus placebo ([4]; TC): 1.6 fold
AUClast fold increase, pravastatin plus CsA over pravastatin plus placebo ([4]; TC (N = 6)): 1.7 fold
Cavg fold increase, pravastatin plus CsA over pravastatin plus placebo ([4]; TC (N = 6)): 2.0 fold
C0 fold increase, pravastatin plus CsA over pravastatin plus placebo ([4]; TT): 1.7 fold
AUClast fold increase, pravastatin plus CsA over pravastatin plus placebo ([4]; TT (N = 8)): 2.0 fold
Cavg fold increase, pravastatin plus CsA over pravastatin plus placebo ([4]; TT (N = 8)): 2.2 fold
AUClast fold increase, pravastatin plus CsA over pravastatin plus placebo ([4]; all genotype): 1.8 fold
Cavg fold increase, pravastatin plus CsA over pravastatin plus placebo ([4]; all genotype): 2.0 fold
Cmax fold increase, pravastatin plus CsA over pravastatin plus placebo ([4]; all genotype (N = 16)): 2.1 fold
ratio of mean AUC in SLCO1B1 c.521‐CC to c.521TT [4]: 2.6 fold
C0 [4, 13]: 84 ± 33 nM
C0 [4, 14]: 60.1 ± 37 nM
Cmax [4, 15]: 155 ± 55.1 nM
Cavg [4, 5]: 149 ± 5.0 nM
Cavg [4, 6]: 86.9 ± 33.0 nM
Cavg [4, 7]: 98.5 ± 27.8 nM
Cavg [4, 10]: 100 ± 33.3 nM
Cmax ([4]; pravastatin + placebo (N = 16)): 90.6 ± 77.3 nM
Cavg [4, 8]: 135 ± 46.6 nM
Cavg [4, 9]: 44.0 ± 11.5 nM
Cavg [4, 11]: 46.1 ± 14.3 nM
increase in plasma concentration, Cmax over baseline [4]: at least twofold
time of peak plasma level [4]: around 3 hours and 3.0 hours
Compound: O=C(O)CCCCCCCCCCCCCCC(=O)O [HDA, hexadecanedioic acid]
Cavg [4, 12]: 56.4 ± 35.1 nM and 56.4 ± 35.1****^, ^b nM

AUC(0-t) [3, 5]: 1.55 µM·h
AUC(0-t) [3, 6]: 0.652 ± 0.246 µM·h
AUC(0-t) [3, 7]: 0.927 ± 0.282 µM·h
AUC(0-t) [3, 8]: 1.8 µM·h
AUC(0-t) [3, 9]: 0.386 ± 0.084 µM·h
C0 ([3]; pravastatin + placebo, CC): 131 ± 48.9 nM
C0 ([3]; pravastatin + placebo, TC): 31.3 ± 5 nM
C0 ([3]; pravastatin + placebo, TT): 44 ± 24.5 nM
AUClast [4, 10]: 902 ± 378 nM·h
AUClast [4, 11]: 448 ± 153 nM·h
AUClast [4, 12]: 593 ± 489 nM·h
C0 fold increase, pravastatin plus CsA over pravastatin plus placebo ([4]; CC): 0.7 fold
AUClast fold increase, pravastatin plus CsA over pravastatin plus placebo ([4]; CC (N = 2)): 0.9 fold
Cavg fold increase, pravastatin plus CsA over pravastatin plus placebo ([4]; CC (N = 2)): 0.9 fold
C0 fold increase, pravastatin plus CsA over pravastatin plus placebo ([4]; TC): 1.4 fold
AUClast fold increase, pravastatin plus CsA over pravastatin plus placebo ([4]; TC (N = 6)): 1.7 fold
Cavg fold increase, pravastatin plus CsA over pravastatin plus placebo ([4]; TC (N = 6)): 1.8 fold
C0 fold increase, pravastatin plus CsA over pravastatin plus placebo ([4]; TT): 2.1 fold
AUClast fold increase, pravastatin plus CsA over pravastatin plus placebo ([4]; TT (N = 8)): 2.2 fold
Cavg fold increase, pravastatin plus CsA over pravastatin plus placebo ([4]; TT (N = 8)): 2.5 fold
Cavg fold increase, pravastatin plus CsA over pravastatin plus placebo ([4]; all genotype): 2.0 fold
Cmax fold increase, pravastatin plus CsA over pravastatin plus placebo ([4]; all genotype (N = 16)): 2.2 fold
ratio of mean AUC in SLCO1B1 c.521‐CC to c.521TT [4]: 4.0 fold
C0 [4, 13]: 68 ± 26 nM
C0 [4, 14]: 55 ± 44 nM
Cmax [4, 15]: 149 ± 71 nM
Cavg [4, 5]: 144 ± 13.9 nM
Cavg [4, 6]: 64.5 ± 26.4 nM
Cavg [4, 7]: 87.6 ± 29.5 nM
Cavg [4, 10]: 86.0 ± 35.8 nM
Cmax ([4]; pravastatin + placebo (N = 16)): 94.7 ± 118 nM
Cavg [4, 8]: 171 ± 53.7 nM
Cavg [4, 9]: 34.6 ± 10.4 nM
Cavg [4, 11]: 38 ± 13.7 nM
increase in plasma concentration, Cmax over baseline [4]: at least twofold
time of peak plasma level [4]: around 3 hours and 3.0 hours
Compound: O=C(O)CCCCCCCCCCCCC(=O)O [TDA, tetradecanedioic acid]
Cavg [4, 12]: 53.3 ± 49.3 nM and 53.3 ± 49.3****^, ^b nM

Tmax ([1]; human, plasma, oral, 40 mg): 1.5 h
AUC(0-t) ([1]; human, plasma, oral, 40 mg, pravastatin + placebo, TC): 48 ± 23 ng·h/mL
AUC(0-t) ([1]; human, plasma, oral, 40 mg, pravastatin + placebo, c.521‐TT): 43 ± 15 ng·h/mL
CL/F ([1]; human, plasma, oral, pravastatin + cyclosporine, CC (N = 3)): 10.7 mL/min/kg
CL/F ([1]; human, plasma, oral, pravastatin + cyclosporine, TC (N = 8)): 24.2 mL/min/kg
CL/F ([1]; human, plasma, oral, pravastatin + cyclosporine, TT (N = 9)): 24.5 mL/min/kg
CL/F ([1]; human, plasma, oral, pravastatin + cyclosporine, all genotype): 22.3 mL/min/kg
CL/F ([1]; human, plasma, oral, pravastatin + placebo, CC (N = 3)): 27.5 mL/min/kg
CL/F ([1]; human, plasma, oral, pravastatin + placebo, TC (N = 8)): 90.3 mL/min/kg
CL/F ([1]; human, plasma, oral, pravastatin + placebo, TT (N = 9)): 102 mL/min/kg
CL/F ([1]; human, plasma, oral, pravastatin + placebo, all genotype): 86.2 mL/min/kg
ratio of mean AUC0→12 in SLCO1B1 c.521CC and c.521TT [1]: 3.6 fold
Cmax ([1]; named peak only (not combined), pravastatin + placebo, TC (N=8)): 31 ± 19 ng/mL
V/F ([1]; pravastatin + cyclosporine, CC (N = 3)): 0.85 ± 0.70 L/kg
V/F ([1]; pravastatin + cyclosporine, TC (N = 8)): 1.52 ± 0.54 L/kg
V/F ([1]; pravastatin + cyclosporine, TT (N = 9)): 1.92 ± 1.34 L/kg
V/F ([1]; pravastatin + cyclosporine, all genotype): 1.60 ± 1.02 L/kg
V/F ([1]; pravastatin + placebo, CC (N = 3)): 1.94 ± 1.37 L/kg
V/F ([1]; pravastatin + placebo, TC (N = 8)): 9.49 ± 9.08 L/kg
V/F ([1]; pravastatin + placebo, TT (N = 9)): 9.56 ± 8.74 L/kg
V/F ([1]; pravastatin + placebo, all genotype): 8.39 ± 8.39 L/kg
Compound: CC[C@H](C)C(=O)O[C@H]1C[C@H](O)C=C2C=C[C@H](C)[C@H](CC[C@@H](O)C[C@@H](O)CC(=O)O)[C@H]21 [pravastatin]
